From US20250034170A1, “SMALL MOLECULE MODULATORS OF GLUCOCEREBROSIDASE ACTIVITY AND USES THEREOF” (Vanqua Bio, Inc., priority 2021, published 2025)

Target: T1, GCase (Homo sapiens, UniProt P04062)
T1 construct: endogenous in cells; host or cells: HeLa cells
T1 sequence (P04062 40-536): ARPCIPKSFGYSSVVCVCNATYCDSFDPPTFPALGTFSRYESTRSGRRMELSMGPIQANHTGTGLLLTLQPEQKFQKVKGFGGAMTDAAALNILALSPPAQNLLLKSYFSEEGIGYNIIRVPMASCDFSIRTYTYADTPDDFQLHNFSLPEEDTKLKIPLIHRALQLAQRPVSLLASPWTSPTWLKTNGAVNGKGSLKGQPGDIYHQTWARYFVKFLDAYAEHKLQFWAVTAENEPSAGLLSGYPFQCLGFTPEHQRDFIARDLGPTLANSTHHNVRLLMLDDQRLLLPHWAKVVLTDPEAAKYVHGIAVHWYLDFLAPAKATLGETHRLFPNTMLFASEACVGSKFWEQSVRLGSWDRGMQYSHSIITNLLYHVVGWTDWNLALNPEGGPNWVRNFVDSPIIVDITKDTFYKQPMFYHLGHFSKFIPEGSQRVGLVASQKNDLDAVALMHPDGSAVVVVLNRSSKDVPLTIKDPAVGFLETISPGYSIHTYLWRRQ
Experiment: activation of GCase in a live cell PFB assay in HELA cells
Assay type: cell-based
Conditions: activation of GCase, EC50 ranges
Method: Exemplary compounds were evaluated for activation of GCase in a live cell PFB assay in HELA cells (essentially as described in Ysselstein et al., “LRRK2 kinase activity regulates lysosomal glucocerebrosidase in neurons derived from Parkinson's disease patients” Nature Communications (2019) 10:5570). […] EC50 ranges: A: <10 μM; B: >10-50 μM; C: >50-100 μM; D: >100 μM.

Row | SMILES | EC50 [µM]
1 | Cc1nc(N2CC3(CCN(c4cnc5cnn(C)c5n4)C3)C2)cc(C(F)(F)F)n1 [Cmpd 649] | 10 to 50
2 | Cc1nc(N2CC3(CCN(c4ncc5cn(C(F)F)nc5n4)C3)C2)cc(C(F)(F)F)n1 [Cmpd 651] | 10 to 50
3 | Cc1ncc(N2CC3(CCN(c4cnc5cnn([C@H]6CCOC6)c5n4)C3)C2)c(C(F)(F)F)n1 [Cmpd 652] | > 100
4 | Cc1ncc(N2CC3(CCN(c4cnc5cnn([C@@H]6CCOC6)c5n4)C3)C2)c(C(F)(F)F)n1 [Cmpd 653] | > 100
5 | FC(F)(F)c1ncc(N2CC3(CCN(c4cnc5cnn([C@@H]6CCOC6)c5n4)C3)C2)cn1 [Cmpd 655] | 10 to 50
6 | Cc1nc(C(F)(F)F)ncc1N1CC2(CCN(c3cnc4cnn([C@@H]5CCOC5)c4n3)C2)C1 [Cmpd 657] | 10 to 50
7 | O=C1N(c2nc(C(F)(F)F)c(F)cc2F)CCC12CCN(c1cnc3cnn(CC(F)F)c3n1)CC2 [Cmpd 664] | 10 to 50
8 | O=C1CC2(CCN1c1cnc3cnn(CC(F)F)c3n1)CN(c1cccc(C(F)(F)F)n1)C2 [Cmpd 667] | 50 to 100
9 | CC1CN(c2cnc3cnn(CC(F)F)c3n2)CC[C@@]12CCN(c1cccc(C(F)(F)F)n1)C2=O (stereo partly drawn) [Cmpd 670] | 10 to 50
10 | COCCOc1cccc(N2CCC3(CCN(c4cnc5cnn(CC(F)F)c5n4)CC3)C2=O)n1 [Cmpd 672] | 10 to 50
11 | O=C1N(c2ccc(C(F)(F)F)nc2)CCC12CCN(c1cnc3cnn(CC(F)F)c3n1)CC2 [Cmpd 673] | < 10
12 | O=C1N(c2ccnc(C(F)(F)F)c2)CCC12CCN(c1cnc3cnn(CC(F)F)c3n1)CC2 [Cmpd 676] | < 10
13 | O=C1N(c2ccc(C(F)(F)F)cn2)CCC12CCN(c1cnc3cnn(CC(F)F)c3n1)CC2 [Cmpd 678] | 10 to 50
14 | O=C1N(c2ncccc2C(F)(F)F)CCC12CCN(c1cnc3cnn(CC(F)F)c3n1)CC2 [Cmpd 679] | 10 to 50
15 | O=C1CC2(CCN(c3cnc4cnn(CC(F)F)c4n3)CC2)CN1c1cncc(C(F)(F)F)c1 [Cmpd 681] | 10 to 50
16 | O=C1CC2(CCN(c3cnc4cnn(CC(F)F)c4n3)CC2)CN1c1cnccc1C(F)(F)F [Cmpd 682] | 10 to 50
17 | O=C1CC2(CCN(c3cnc4cnn(CC(F)F)c4n3)CC2)CN1c1ccnc(C(F)(F)F)c1 [Cmpd 683] | < 10
18 | O=C1CC2(CCN(c3cnc4cnn(CC(F)F)c4n3)CC2)CN1c1ccncc1C(F)(F)F [Cmpd 684] | < 10

Row | SMILES | EC50 [µM]
19 | O=C1CC2(CCN(c3cnc4cnn(CC(F)F)c4n3)CC2)CN1c1ccc(C(F)(F)F)cn1 [Cmpd 685] | 10 to 50
20 | O=C1CC2(CCN(c3cnc4cnn(CC(F)F)c4n3)CC2)CN1c1ncccc1C(F)(F)F [Cmpd 686] | > 100
21 | FC(F)Cn1ncc2ncc(N3CCC4(CCC(Oc5ccncc5C(F)(F)F)C4)CC3)nc21 (stereo not drawn) [Cmpd 687] | < 10
22 | FC(F)Cn1ncc2ncc(N3CCC4(CCC(Oc5cnccc5C(F)(F)F)C4)CC3)nc21 (stereo not drawn) [Cmpd 688] | < 10
23 | FC(F)Cn1ncc2ncc(N3CCC4(CCC(Oc5ncccc5C(F)(F)F)C4)CC3)nc21 (stereo not drawn) [Cmpd 689] | 10 to 50
24 | FC(F)Cn1ncc2ncc(N3CCC4(CCC(Oc5ccc(C(F)(F)F)nc5)C4)CC3)nc21 (stereo not drawn) [Cmpd 693] | < 10
25 | FC(F)Cn1ncc2ncc(N3CCC4(CCC(Oc5ccc(C(F)(F)F)cn5)C4)CC3)nc21 (stereo not drawn) [Cmpd 694] | 10 to 50
26 | FC(F)Cn1ncc2ncc(N3CCC4(CC3)CC(COc3ccncc3C(F)(F)F)C4)nc21 [Cmpd 698] | < 10
27 | FC(F)Cn1ncc2ncc(N3CCC4(CC3)CC(COc3ncccc3C(F)(F)F)C4)nc21 [Cmpd 700] | < 10
28 | FC(F)Cn1ncc2ncc(N3CCC4(CC3)CC(Oc3ccnc(C(F)(F)F)c3)C4)nc21 [Cmpd 703] | < 10
29 | FC(F)Cn1ncc2ncc(N3CCC4(CC3)CC(Oc3ccncc3C(F)(F)F)C4)nc21 [Cmpd 706] | < 10
30 | FC(F)Cn1ncc2ncc(N3CCC4(CC3)CC(Oc3cnccc3C(F)(F)F)C4)nc21 [Cmpd 707] | 10 to 50
31 | FC(F)Cn1ncc2ncc(N3CCC4(CC3)CC(Oc3ncccc3C(F)(F)F)C4)nc21 [Cmpd 708] | 10 to 50
32 | O=C1N(c2cc(C(F)(F)F)ccn2)C(=O)C2(CCN(c3cnc4cnn(CC(F)F)c4n3)CC2)N1CCC1CC1 [Cmpd 712] | 10 to 50
33 | O=C1N(c2cc(C(F)(F)F)ccn2)C(=O)C2(CCN(c3cnc4cnn(CC(F)F)c4n3)CC2)N1Cc1c(F)cccc1F [Cmpd 715] | < 10
34 | O=C1N(c2cc(C(F)(F)F)ccn2)C(=O)C2(CCN(c3cnc4cnn(CC(F)F)c4n3)CC2)N1Cc1cc(F)cc(F)c1 [Cmpd 716] | < 10
35 | O=C1N(c2cc(C(F)(F)F)ccn2)C(=O)C2(CCN(c3cnc4cnn(CC(F)F)c4n3)CC2)N1Cc1cccc(F)c1F [Cmpd 717] | < 10

Second part, the compound after the results:

Row | EC50 [µM] | SMILES
36 | < 10 | Cc1nc(N2CC3(CCN(c4ncc5cnn(C(F)F)c5n4)C3)C2)cc(C(F)(F)F)n1 [Cmpd 650]
37 | 10 to 50 | FC(F)(F)c1ncc(N2CC3(CCN(c4cnc5cnn([C@H]6CCOC6)c5n4)C3)C2)cn1 [Cmpd 654]
38 | 50 to 100 | Cc1nc(C(F)(F)F)ncc1N1CC2(CCN(c3cnc4cnn([C@H]5CCOC5)c4n3)C2)C1 [Cmpd 656]
39 | 10 to 50 | Cc1nc(C(F)(F)F)ncc1N1CCC2(CCN(c3ncc4c(C)nn(CC(F)(F)F)c4n3)C2)C1 (stereo not drawn) [Cmpd 658]
40 | 10 to 50 | Cc1ncc(N2CCC3(CCN(c4ncc5c(C)nn(CC(F)(F)F)c5n4)C3)C2)c(C(F)(F)F)n1 (stereo not drawn) [Cmpd 659]
41 | 10 to 50 | FC(F)(F)c1ccc(N2CC3(CCN(c4cnc5cnn(C6COC6)c5n4)C3)C2)cn1 [Cmpd 660]
42 | 10 to 50 | CC1(C)CC2(CCN(c3cnc4cnn(CC(F)F)c4n3)CC2)C(=O)N1c1cc(C(F)(F)F)ccn1 [Cmpd 661]
43 | 10 to 50 | CC1(C)N(c2cc(C(F)(F)F)ccn2)C(=O)CC12CCN(c1cnc3cnn(CC(F)F)c3n1)CC2 [Cmpd 662]
44 | 10 to 50 | CCC1N(c2cc(C(F)(F)F)ccn2)C(=O)CC12CCN(c1cnc3cnn(CC(F)F)c3n1)CC2 (stereo not drawn) [Cmpd 663]
45 | > 100 | COc1cc(N2CCC3(CCN(c4cnc5cnn(CC(F)F)c5n4)CC3)C2=O)nc(C(F)(F)F)c1 [Cmpd 665]
46 | < 10 | Cn1c(N2CCC3(CCN(c4cnc5cnn(CC(F)F)c5n4)CC3)C2=O)cc(=O)cc1C(F)(F)F [Cmpd 666]
47 | < 10 | CC1CC2(CCN(c3cccc(C(F)(F)F)n3)C2=O)CCN1c1cnc2cnn(CC(F)F)c2n1 (stereo not drawn) [Cmpd 668]
48 | < 10 | CN(C)C(=O)c1cccc(N2CCC3(CCN(c4cnc5cnn(CC(F)F)c5n4)CC3)C2=O)n1 [Cmpd 671]
49 | < 10 | O=C1N(c2cncc(C(F)(F)F)c2)CCC12CCN(c1cnc3cnn(CC(F)F)c3n1)CC2 [Cmpd 674]
50 | 10 to 50 | O=C1N(c2cnccc2C(F)(F)F)CCC12CCN(c1cnc3cnn(CC(F)F)c3n1)CC2 [Cmpd 675]
51 | 10 to 50 | O=C1N(c2ccncc2C(F)(F)F)CCC12CCN(c1cnc3cnn(CC(F)F)c3n1)CC2 [Cmpd 677]
52 | 10 to 50 | O=C1CC2(CCN(c3cnc4cnn(CC(F)F)c4n3)CC2)CN1c1ccc(C(F)(F)F)nc1 [Cmpd 680]

Row | EC50 [µM] | SMILES
53 | < 10 | FC(F)Cn1ncc2ncc(N3CCC4(CCC(Oc5ccnc(C(F)(F)F)c5)C4)CC3)nc21 (stereo not drawn) [Cmpd 690]
54 | 10 to 50 | FC(F)Cn1ncc2ncc(N3CCC4(CCC(Oc5cncc(C(F)(F)F)c5)C4)CC3)nc21 (stereo not drawn) [Cmpd 691]
55 | 10 to 50 | FC(F)Cn1ncc2ncc(N3CCC4(CCC(Oc5cc(C(F)(F)F)ccn5)C4)CC3)nc21 (stereo not drawn) [Cmpd 692]
56 | < 10 | FC(F)Cn1ncc2ncc(N3CCC4(CC3)CC(COc3ccnc(C(F)(F)F)c3)C4)nc21 [Cmpd 695]
57 | < 10 | FC(F)Cn1ncc2ncc(N3CCC4(CC3)CC(COc3cncc(C(F)(F)F)c3)C4)nc21 [Cmpd 696]
58 | 10 to 50 | FC(F)Cn1ncc2ncc(N3CCC4(CC3)CC(COc3cc(C(F)(F)F)ccn3)C4)nc21 [Cmpd 697]
59 | < 10 | FC(F)Cn1ncc2ncc(N3CCC4(CC3)CC(COc3cnccc3C(F)(F)F)C4)nc21 [Cmpd 699]
60 | 10 to 50 | FC(F)Cn1ncc2ncc(N3CCC4(CC3)CC(COc3ccc(C(F)(F)F)nc3)C4)nc21 [Cmpd 701]
61 | 10 to 50 | FC(F)Cn1ncc2ncc(N3CCC4(CC3)CC(COc3ccc(C(F)(F)F)cn3)C4)nc21 [Cmpd 702]
62 | < 10 | FC(F)Cn1ncc2ncc(N3CCC4(CC3)CC(Oc3cncc(C(F)(F)F)c3)C4)nc21 [Cmpd 704]
63 | 10 to 50 | FC(F)Cn1ncc2ncc(N3CCC4(CC3)CC(Oc3cc(C(F)(F)F)ccn3)C4)nc21 [Cmpd 705]
64 | 10 to 50 | FC(F)Cn1ncc2ncc(N3CCC4(CC3)CC(Oc3ccc(C(F)(F)F)nc3)C4)nc21 [Cmpd 709]
65 | 10 to 50 | FC(F)Cn1ncc2ncc(N3CCC4(CC3)CC(Oc3ccc(C(F)(F)F)cn3)C4)nc21 [Cmpd 710]
66 | 10 to 50 | O=C1N(c2cc(C(F)(F)F)ccn2)C(=O)C2(CCN(c3cnc4cnn(CC(F)F)c4n3)CC2)N1CC1CC1 [Cmpd 711]
67 | < 10 | COCCN1C(=O)N(c2cc(C(F)(F)F)ccn2)C(=O)C12CCN(c1cnc3cnn(CC(F)F)c3n1)CC2 [Cmpd 713]
68 | < 10 | O=C1N(c2cc(C(F)(F)F)ccn2)C(=O)C2(CCN(c3cnc4cnn(CC(F)F)c4n3)CC2)N1Cc1ccc(F)cc1F [Cmpd 714]
69 | < 10 | O=C1N(c2cc(C(F)(F)F)ccn2)C(=O)C2(CCN(c3cnc4cnn(CC(F)F)c4n3)CC2)N1Cc1cc(F)ccc1F [Cmpd 718]
